Test results as given in US20260209152A1, “Substituted Hydroxystilbene Compounds and Derivatives, Synthesis and Uses Thereof” (Kynan Duke IP, LLC, priority 2019, published 2026).
Like-named read-outs stand apart in the source and are kept apart here.

Assays:
[1] = system: Cancer cells including pancreatic, bladder, kidney, colon, breast, lung, liver and osteosarcomas; assay: CellTiter Glo cell viability assay, panel of cancer cell lines; type: cell-based, human
Summary of the method: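 Cells (1.7*10^3/well) were seeded in quadruplicate and treated with 2-fold dilutions over 18 concentrations up to 5 μM, or with 1, 2, 5, 10 and 20 μM. Viability was read by CellTiter Glo luminescence on days 1, 3 and 5; half-maximal concentrations came from nonlinear regression of RLU versus log dose.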

[2] = system: IL-17A secretion from human PBMC stimulated with antiCD3/antiCD28-coated beads; assay: PBMC IL-17 assay (assay number 1321); type: cell-based; settings: for Max Eff.: IL-17 (1321): highest effect as percentage of control maximum effect
Experimental: Inhibition of IL-17A secretion from human PBMC stimulated with antiCD3/antiCD28-coated beads. LEO Pharma Open Innovation assay number 1321
The inflammatory skin disease psoriasis is characterized by cytokines IL-17A and TNFα. In the present assay, human peripheral blood mononuclear cells (PBMC) are stimulated with beads coated with antibodies against CD3 and CD28 to activate the T-cell receptor, and stimulated with IL-23 to promote T-helper17 activity. The cells are incubated for three days, then the secreted level of IL-17A is measured in the culture supernatant using AlphaLISA and the amount of living cells is measured by addition of resazurin (PrestoBlue®) to identify compounds that inhibit cell proliferation or viability. […] Compounds which inhibit IL-17A secretion may be expected to have efficacy in psoriasis.
• PBMC are isolated from fresh human buffy coats by centrifugation on Lymphoprep® following instructions from Sebmate® • Cells are spun down and resuspended in freezing medium (RPMI1640+20% FBS+5% DMSO) • Cells are frozen in aliquots of 8×10^7 cells/vial matching one 384 plate. Cells are placed in Coolcell box and placed in −80° C. freezer for one day. Vials are moved to the −150° C. freezer in a prechilled box.
• Prepare assay medium: RPMI1640+10% heat inactivated FBS and 1% pen/strep, supplemented with human IL-23, 20 ng/mL (R&D systems, cat no 1290-IL-010) • Test compounds: Prepare compound-containing source plate, i.e. titrations in DMSO to be transferred to the assay plate. • Add 70 nL compounds and controls from the source plate to the assay plate. • Thaw the cells by adding 1 vial to 20 ml warm assay medium • Centrifuge the cells down at 170 G in 10 minutes, remove the supernatant and resuspend in new medium. • Filter the cells though a 37 µm strainer. • Count the cells in the cell counter. • Beads (T Cell Activation/Expansion Kit-human, Miltenyi Biotech, cat. no. 130-091-441): Coat beads with antibodies (antiCD3 and antiCD28) according to the kit procedure. • Add the beads to the cells, one bead per cell, 2.1e+06 cells/ml. Use a pipette to mix the cells and beads carefully. • Seed the cell/bead mixture into the assay plate, 70 μL/well ([…]) • Place the plates in a humidity chamber with lid (24.5×24.5 cm box added H2O in the bottom). • Incubate plates at 37° C., 5% CO2/95% air for 3 days.
• IL-17A concentration in the supernatants is measured using an alphaLISA kit (Perkin Elmer, cat no. AL219F). • Pretest to find optima dilution of samples: Test 5 μL supernatant from control wells and run IL-17A alphaLISA assay with only 2 hours of incubation. • When data are available, remove assay plates from incubation and equilibrate to room temperature for 30 minutes. • Transfer 5 μL or corrected amounts of supernatant to a 384-proxy plate • Add 5 μL alphaLISA acceptor beads. • Incubate 1 hour at room temperature • Add 5 μL donor beads • Incubate overnight at room temperature protected from light. • Add 7 μL PrestoBlue reagent (resazurin)/well to the assay plate and incubated for 2-4 hours at 37° C./5% CO2. The fluorescence in the wells is measured (Ex615/Em 535).
IL-17A concentration in the supernatants is measured using an alphaLISA kit (Perkin Elmer, cat no. AL219F).
The capacity of the test compound to inhibit IL-17A release is normalized to the signal in the negative control wells treated with a toxic compound, Terfenadine.

GBM patient sample BNB04 = assay: Ex vivo GBM 3D spheroid drug response (CellTiter-Glo 3D); type: cell-based, human; settings: Homo sapiens, 96 h, 3D spheroids; 4 days post drug treatment
Excerpt: (§1) This project involves an ex vivo drug response screen for 3 ROKiT Pharma test agents and Temozolomide in 3 previously dissociated and cryopreserved GBM samples.
(§2) • 2.1 Three previously processed GBM patient samples were chosen to be used in this study.

GBM patient sample BNB18 = assay: as above; type: cell-based, human; settings: 3D spheroids, 4 days post drug treatment
Excerpt: as §1, §2

GBM patient sample BNA99 = assay: as above; type: cell-based, human; settings: 3D spheroids, 4 days post drug treatment
Excerpt: as §1, §2

Kidney ACHN = assay: CellTiter Glo cell viability assay; type: cell-based; settings: Homo sapiens; ACHN/CRL-1611; 11 dilutions 3-0.00001 μM
Colon SW_480 = assay: CellTiter Glo cell viability assay; type: cell-based, human; settings: for IC50: Homo sapiens
[3] = inhibition of IL-17A secretion, human PBMC, read-out: Abs EC50: IL-17 (1321)
[4] = SW480, 72 h, 3 Days of treatment, 18 2-fold dilutions 5-0.00003 μM, read-out: Average IC50
[5] = SW480/CCL-228, 11 dilutions 3-0.00001 μM, read-out: IC50

SMILES | IC50 ([1]; Homo sapiens, comparative study on 83 cancer cell lines (Table 3), read-out: IC50 values in the range, towards the cell lines listed in the text) | IC50 (Kidney ACHN) | Effect on cell viability on Day 1 ([1]; Day 1 upon treatment at dosages <1 μM) | Max Eff.: IL-17 (1321) [2] | EC50 [2, 3] | IC50 (GBM patient sample BNB04) | IC50 (GBM patient sample BNB18; Homo sapiens, 96 h) | IC50 (GBM patient sample BNA99; Homo sapiens, 96 h) | IC50 (Colon SW_480; [4]) | IC50 (Colon SW_480; SW480, 72 h, Day 3 upon drug treatment, 10 dosages 0.0001-20 μM, read-out: IC50) | IC50 (Colon SW_480; [5]) | Average fold (8 [KYN-119] more potent than 1 [KYN-001]) ([1]; 83 cancer cell lines, Table 3) | Fold IC50 (Colon SW_480; IC50 of 1 [KYN-001] vs 8 [KYN-119], 3 Days) | reduction of IL-17A release, in words [2] | IC50 (GBM patient sample BNB18) | IC50 (GBM patient sample BNA99) | Cancer cell viability inhibition, statement in words ([1]; SAR discussion based on IC50 values in Tables 1 to 5, compared with 1 [KYN-001]) | EC50 ([2]; Homo sapiens, PBMC, read-out: EC50, inhibition of IL-17A secretion) | Emax ([2]; Homo sapiens, PBMC, read-out: maximum efficacy, IL-17A secretion)
COc1cc(/C=C/c2cc(O)cc(OC)c2CC=C(C)C)ccc1O [Compound 1, (E)-3-(4-hydroxy-3-methoxystyryl)-5-methoxy-4-(3-methylbut-2-en-1-yl)phenol] | 10 to 100 nM | 241 nM | neither 1 nor 8 affect cell viability | 54% | 4430 nM | 10900 nM | 1330 nM | 15000 nM | 179 nM | 298 nM | 225 nM | – | – | – | – | – | – | – | –
COc1cc(/C=C/c2cc(O)cc(OC)c2CC=C(C)C)ccc1NC=O [Compound 27, (E)-N-(4-(5-hydroxy-3-methoxy-2-(3-methylbut-2-en-1-yl)styryl)-2-methoxyphenyl)formamide] | – | 26.7 nM | – | 65% | 2120 nM | 4310 nM | 630 nM | 8860 nM | – | – | 89.6 nM | – | – | significantly less effective | 634 nM | 8870 nM | – | – | –
COc1cc(/C=C/c2cc(O)cc(OC)c2CC=C(C)C)ccc1NC(=O)CN [Compound 31, (E)-2-amino-N-(4-(5-hydroxy-3-methoxy-2-(3-methylbut-2-en-1-yl)styryl)-2-methoxyphenyl)acetamide] | – | – | – | 53% | 4870 nM | – | – | – | – | – | – | – | – | – | – | – | – | – | –
CCOc1cc(O)cc(/C=C/c2ccc(NC(=O)C(=O)O)c(OC)c2)c1CC=C(C)C [Compound 35, (E)-2-((4-(3-Ethoxy-5-hydroxy-2-(3-methylbut-2-en-1-yl)styryl)-2-methoxyphenyl)amino)-2-oxoacetic acid] | – | – | – | 19% | 5000 nM | – | – | – | – | – | – | – | – | – | – | – | – | – | –

Second part, led by results:

IC50 ([1]; Homo sapiens, comparative study on 83 cancer cell lines (Table 3), read-out: IC50 values in the range, towards the cell lines listed in the text) | IC50 (Kidney ACHN) | SMILES | Effect on cell viability on Day 1 ([1]; Day 1 upon treatment at dosages <1 μM) | Max Eff.: IL-17 (1321) [2] | EC50 [2, 3] | IC50 (GBM patient sample BNB04) | IC50 (GBM patient sample BNB18; Homo sapiens, 96 h) | IC50 (GBM patient sample BNA99; Homo sapiens, 96 h) | IC50 (Colon SW_480; [4]) | IC50 (Colon SW_480; SW480, 72 h, Day 3 upon drug treatment, 10 dosages 0.0001-20 μM, read-out: IC50) | IC50 (Colon SW_480; [5]) | Average fold (8 [KYN-119] more potent than 1 [KYN-001]) ([1]; 83 cancer cell lines, Table 3) | Fold IC50 (Colon SW_480; IC50 of 1 [KYN-001] vs 8 [KYN-119], 3 Days) | reduction of IL-17A release, in words [2] | IC50 (GBM patient sample BNB18) | IC50 (GBM patient sample BNA99) | Cancer cell viability inhibition, statement in words ([1]; SAR discussion based on IC50 values in Tables 1 to 5, compared with 1 [KYN-001]) | EC50 ([2]; Homo sapiens, PBMC, read-out: EC50, inhibition of IL-17A secretion) | Emax ([2]; Homo sapiens, PBMC, read-out: maximum efficacy, IL-17A secretion)
– | 75.7 nM | CCOc1cc(O)cc(/C=C/c2ccc(O)c(OC)c2)c1CC=C(C)C [Compound 8, (E)-3-Ethoxy-5-(4-hydroxy-3-methoxystyryl)-4-(3-methylbut-2-en-1-yl)phenol] | – | 69% | 1550 nM | – | – | – | 17.9 nM | – | 109 nM | 10 | 10 | – | – | – | – | – | –
– | 83.4 nM | CCOc1cc(O)cc(/C=C/c2ccc(O)c(O)c2)c1CC=C(C)C [Compound 20, (E)-4-(3-Ethoxy-5-hydroxy-2-(3-methylbut-2-en-1-yl)styryl)benzene-1,2-diol] | – | 85% | 1650 nM | 23700 nM | 4560 nM | 19100 nM | – | – | 158 nM | – | – | – | – | – | – | – | –
– | 18.8 nM | CCOc1cc(O)cc(/C=C/c2ccc(NC=O)c(OC)c2)c1CC=C(C)C [Compound 28, (E)-N-(4-(3-Ethoxy-5-hydroxy-2-(3-methylbut-2-en-1-yl)styryl)-2-methoxyphenyl)formamide] | – | 73% | 526 nM | – | – | – | – | – | 30 nM | – | – | low potency reduction of IL-17A release | – | – | much enhanced inhibition | 526 nM | 73%
